Results from PubChem BioAssay (NCI).
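96-well plates; 48 h exposure; 5 concentrations. Endpoints by linear interpolation between flanking doses. Not reached: highest tested concentration assigned. The concentration for 50% growth inhibition is given as GI50. TGI: concentration producing complete growth inhibition.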

Columns and labels:
Experiment in all cases: inhibition of tumour cell growth, NCI panel, 48 h
IGROV1 ovarian = system: IGROV1 ovarian
LOX IMVI melanoma = system: LOX IMVI melanoma
SW-620 colon = system: SW-620 colon
NCI-H460 lung = system: NCI-H460 lung
K-562 leukemia = system: K-562 leukemia
HCT-15 colon = system: HCT-15 colon
ACHN renal = system: ACHN renal
M14 melanoma = system: M14 melanoma
SK-MEL-2 melanoma = system: SK-MEL-2 melanoma
U251 CNS = system: U251 CNS
HOP-62 NSCLC = system: HOP-62 NSCLC
BT-549 breast = system: BT-549 breast
HOP-92 NSCLC = system: HOP-92 NSCLC
OVCAR-5 ovarian = system: OVCAR-5 ovarian
HCC-2998 colon = system: HCC-2998 colon
NCI/ADR-RES ovarian = system: NCI/ADR-RES ovarian
T-47D breast = system: T-47D breast
HL-60(TB) leukemia = system: HL-60(TB) leukemia
786-0 renal = system: 786-0 renal
SNB-19 CNS = system: SNB-19 CNS
SK-MEL-5 melanoma = system: SK-MEL-5 melanoma
UACC-257 melanoma = system: UACC-257 melanoma
HCT-116 colon = system: HCT-116 colon
RXF 393 renal = system: RXF 393 renal
PC-3 prostate = system: PC-3 prostate
TK-10 renal = system: TK-10 renal
EKVX NSCLC = system: EKVX NSCLC
NCI-H226 lung = system: NCI-H226 lung
MDA-MB-231 breast = system: MDA-MB-231 breast
MDA-MB-435 = system: MDA-MB-435
COLO 205 colon = system: COLO 205 colon
CAKI-1 renal = system: CAKI-1 renal
A549 NSCLC = system: A549 NSCLC
NCI-H23 lung = system: NCI-H23 lung
MOLT-4 leukemia = system: MOLT-4 leukemia
OVCAR-3 ovarian = system: OVCAR-3 ovarian
OVCAR-8 ovarian = system: OVCAR-8 ovarian
SN12C renal = system: SN12C renal
NCI-H522 lung = system: NCI-H522 lung
MCF7 breast = system: MCF7 breast
SF-295 CNS = system: SF-295 CNS
SK-MEL-28 melanoma = system: SK-MEL-28 melanoma
SF-268 CNS = system: SF-268 CNS
HS 578T breast = system: HS 578T breast
KM12 colon = system: KM12 colon
UACC-62 melanoma = system: UACC-62 melanoma
HT29 colon = system: HT29 colon
UO-31 renal = system: UO-31 renal

C=C1CCC2C(C)(C)CCC[C@]2(C)[C@H]1CO (stereo partly specified)
GI50 (IGROV1 ovarian): > 100 µM
TGI (IGROV1 ovarian): > 100 µM
GI50 (LOX IMVI melanoma): 24.9 µM
TGI (LOX IMVI melanoma): 70.2 µM
GI50 (SW-620 colon): > 100 µM
TGI (SW-620 colon): > 100 µM
GI50 (NCI-H460 lung): 59.8 µM
TGI (NCI-H460 lung): > 100 µM
GI50 (K-562 leukemia): 73.8 µM
TGI (K-562 leukemia): > 100 µM
GI50 (HCT-15 colon): 56.9 µM
TGI (HCT-15 colon): > 100 µM
GI50 (ACHN renal): 97.9 µM
TGI (ACHN renal): > 100 µM
GI50 (M14 melanoma): 71.8 µM
TGI (M14 melanoma): > 100 µM
GI50 (SK-MEL-2 melanoma): > 100 µM
TGI (SK-MEL-2 melanoma): > 100 µM
GI50 (U251 CNS): 49 µM
TGI (U251 CNS): > 100 µM
GI50 (HOP-62 NSCLC): > 100 µM
TGI (HOP-62 NSCLC): > 100 µM
GI50 (BT-549 breast): 47.9 µM
TGI (BT-549 breast): > 100 µM
GI50 (HOP-92 NSCLC): 74.9 µM
TGI (HOP-92 NSCLC): > 100 µM
GI50 (OVCAR-5 ovarian): 93.5 µM
TGI (OVCAR-5 ovarian): > 100 µM
GI50 (HCC-2998 colon): 13.5 µM
TGI (HCC-2998 colon): 33 µM
GI50 (NCI/ADR-RES ovarian): 60.3 µM
TGI (NCI/ADR-RES ovarian): > 100 µM
GI50 (T-47D breast): 41.7 µM
TGI (T-47D breast): > 100 µM
GI50 (HL-60(TB) leukemia): 15.8 µM
TGI (HL-60(TB) leukemia): > 100 µM
GI50 (786-0 renal): 57.3 µM
TGI (786-0 renal): > 100 µM
GI50 (SNB-19 CNS): > 100 µM
TGI (SNB-19 CNS): > 100 µM
GI50 (SK-MEL-5 melanoma): 68.2 µM
TGI (SK-MEL-5 melanoma): > 100 µM
GI50 (UACC-257 melanoma): > 100 µM
TGI (UACC-257 melanoma): > 100 µM
GI50 (HCT-116 colon): 30.4 µM
TGI (HCT-116 colon): > 100 µM
GI50 (RXF 393 renal): > 100 µM
TGI (RXF 393 renal): > 100 µM
GI50 (PC-3 prostate): 65.8 µM
TGI (PC-3 prostate): > 100 µM
GI50 (TK-10 renal): > 100 µM
TGI (TK-10 renal): > 100 µM
GI50 (EKVX NSCLC): 53.5 µM
TGI (EKVX NSCLC): > 100 µM
GI50 (NCI-H226 lung): 94.5 µM
TGI (NCI-H226 lung): > 100 µM
GI50 (MDA-MB-231 breast): 50.2 µM
TGI (MDA-MB-231 breast): > 100 µM
GI50 (MDA-MB-435): 43.2 µM
TGI (MDA-MB-435): > 100 µM
GI50 (COLO 205 colon): 42.1 µM
TGI (COLO 205 colon): > 100 µM
GI50 (CAKI-1 renal): > 100 µM
TGI (CAKI-1 renal): > 100 µM
GI50 (A549 NSCLC): 73.9 µM
TGI (A549 NSCLC): > 100 µM
GI50 (NCI-H23 lung): 46.1 µM
TGI (NCI-H23 lung): > 100 µM
GI50 (MOLT-4 leukemia): 73.2 µM
TGI (MOLT-4 leukemia): > 100 µM
GI50 (OVCAR-3 ovarian): > 100 µM
TGI (OVCAR-3 ovarian): > 100 µM
GI50 (OVCAR-8 ovarian): 76.1 µM
TGI (OVCAR-8 ovarian): > 100 µM
GI50 (SN12C renal): 19.8 µM
TGI (SN12C renal): 39.5 µM
GI50 (NCI-H522 lung): 67.6 µM
TGI (NCI-H522 lung): > 100 µM
GI50 (MCF7 breast): 49.1 µM
TGI (MCF7 breast): > 100 µM
GI50 (SF-295 CNS): > 100 µM
TGI (SF-295 CNS): > 100 µM
GI50 (SK-MEL-28 melanoma): > 100 µM
TGI (SK-MEL-28 melanoma): > 100 µM
GI50 (SF-268 CNS): > 100 µM
TGI (SF-268 CNS): > 100 µM
GI50 (HS 578T breast): > 100 µM
TGI (HS 578T breast): > 100 µM
GI50 (KM12 colon): 87.7 µM
TGI (KM12 colon): > 100 µM
GI50 (UACC-62 melanoma): > 100 µM
TGI (UACC-62 melanoma): > 100 µM
GI50 (HT29 colon): 52.7 µM
TGI (HT29 colon): > 100 µM
GI50 (UO-31 renal): > 100 µM
TGI (UO-31 renal): > 100 µM
